Experimental data: paper PMC4294381, “Metformin repositioning as antitumoral agent: selective antiproliferative effects in human glioblastoma stem cells, via inhibition of CLIC1-mediated ion current” (Oncotarget, 2014)

Tests used:
Format in all cases: cell-based
[1] = target: T1, chloride intracellular channel-1 (CLIC1) (Homo sapiens, UniProt O00299, R29A); test: whole-cell patch clamp in transfected CHO cells
T1 construct: FLAG-tagged CLIC1 R29A expressed in CHO cells

[2] = target: T2, chloride intracellular channel-1 (CLIC1) (Homo sapiens, UniProt O00299); test: whole-cell patch clamp in transfected CHO cells; design: FLAG-tagged CLIC1-wt expressed in CHO cells
[3] = target: T2, chloride intracellular channel-1 (CLIC1); test: patch clamp, whole-cell (U87, GBM CSC, CHO expressing human CLIC1) and outside-out single channel
[4] = target: T3, chloride intracellular channel-1 (CLIC1) (Homo sapiens, UniProt O00299, K37A); test: whole-cell patch clamp in transfected CHO cells, metformin […]
T3 construct: FLAG-tagged CLIC1 K37A expressed in CHO cells

SMILES | EC50 [1] [µM] | EC50 [2] [µM] | EC50 [3] [µM] | whole-cell patch clamp in transfected CHO cells, metformin 10 mM [4]
CC1(C2CCCC2)Cc2cc(OCC(=O)O)c(Cl)c(Cl)c2C1=O (stereo not shown) [IAA94] | 29.2 | 27.3 |  | 
CN(C)C(=N)N=C(N)N [Metformin] |  |  | 2100 | Metformin significantly inhibited membrane current in CLIC1 wt and K37A-transfected cells (Fig. 7A and D)
